Test results from patent publication US11512128B2, “VEGF/DLL4 binding agents and uses thereof” (MEREO BIOPHARMA 5, INC., priority 2011, dated 2022).

How the values were obtained:
[1] = test system: OMP-PN8 pancreatic tumor cells; assay: Tumorigenicity of OMP-PN8 pancreatic tumor cells after treatment (serial transplantation); assay type: in vivo, NOD/SCID mice; conditions: 90 cells from treated tumors transplanted, day 55, no treatment; 21M18, bevacizumab 15 mg/kg, bispecifics 30 mg/kg, gemcitabine 70 mg/kg, four weeks
Description: FIG. 6. Tumorigenicity of pancreatic tumor cells after treatment with anti-VEGF/anti-DLL4 bispecific antibodies. OMP-PN8 tumor cells from mice treated with control antibody, anti-hDLL4 antibody 21M18, anti-VEGF antibody bevacizumab, or anti-VEGF/anti-DLL4 bispecific antibodies 219R45-MB-21M18 or 219R45-MB-21R79 with or without gemcitabine were processed to single cell suspensions, and serially transplanted into mice. 90 cells from each treatment group were injected subcutaneously into NOD/SCID mice. Tumors were allowed to grow with no treatment. Data is shown as tumor volume (mm^3) on day 55. Tumor frequency is shown as number of tumors over total number of mice injected in each group.
Mice bearing OMP-PN8 pancreatic tumors were treated with control antibody (15 mg/kg), anti-hDLL4 antibody 21M18 (15 mg/kg), anti-VEGF antibody bevacizumab (15 mg/kg), or anti-VEGF/anti-DLL4 bispecific antibodies 219R45-MB-21M18 or 219R45-MB-21R79 (30 mg/kg) with or without gemcitabine (70 mg/kg). Following four weeks of treatment, tumors were harvested, processed to single cell suspensions and the human tumor cells were purified by immunomagnetic depletion of murine cells. 90 human tumor cells from each treatment group were transferred to a new cohort of mice (n=10 mice/group). Tumors were allowed to grow for 55 days without any treatment and tumor volumes were measured with electronic calipers.

OMP-C8 colon tumor [2] = assay: Tumorigenicity of OMP-C8 colon tumors after treatment (serial transplantation); assay type: in vivo, NOD/SCID mice; conditions: 150 cells from treated tumors transplanted, day 68; without irinotecan combination
Description: FIG. 10. Tumorigenicity of […] colon tumor cells after treatment with anti-VEGF/anti-DLL4 bispecific antibodies. Tumors from mice treated with control antibody, anti-hDLL4 antibody 21M18, anti-VEGF antibody bevacizumab, a combination of 21M18 and bevacizumab, or anti-VEGF/anti-DLL4 bispecific antibodies 219R45-MB-21M18 or 219R45-MB-21R79 with or without irinotecan were processed to single cell suspensions, and serially transplanted into mice. 150 cells from each treatment group were injected subcutaneously into NOD/SCID mice. Tumors were allowed to grow with no treatment. Data are shown as tumor volume (mm^3) on day 68.
Single cell suspensions of OMP-C8 colon tumor xenografts (20,000 cells) were injected subcutaneously into the flanks of 6-8 week old NOD/SCID mice. Tumors were allowed to grow for 33 days until they reached an average volume of 300 mm^3. The mice were randomized (n=5 per group) and treated with anti-DLL4 antibody 21M18, anti-VEGF antibody bevacizumab, a combination of antibodies 21M18 and bevacizumab, anti-VEGF/anti-DLL4 bispecific antibody 219R45-MB-21M18, anti-VEGF/anti-DLL4 bispecific antibody 219R45-MB-21R79, or control antibody, either in combination with irinotecan or without irinotecan. Antibodies and irinotecan were dosed weekly by injection into the intraperitoneal cavity. Antibodies 21M18 and bevacizumab were dosed at 7.5 mg/kg, bispecific antibodies 219R45-MB-21M18 and 219R45-MB-21R79 were dosed at 15 mg/kg, and irinotecan was dosed at 45 mg/kg. Tumors were harvested after 4 weeks, processed into single cell suspensions, and the human tumor cells were isolated. 150 tumor cells from each experimental group were injected subcutaneously into a new cohort of mice (n=10 per group) and tumors were allowed to grow without treatment. Tumor growth was monitored and tumor volumes were measured with electronic calipers.

OMP-C8 colon tumor cells = assay: Tumor growth in human skin graft model; assay type: in vivo, NOD-SCID mice; conditions: 25 mg/kg intraperitoneally once a week
Description: FIG. 5. Inhibition of colon tumor growth in vivo by an anti-VEGF/anti-DLL4 bispecific antibody. OMP-C8 colon tumor cells were injected subcutaneously into a human skin graft in NOD/SCID mice. Mice were treated with control antibody (-▪-), anti-hDLL4 antibody 21M18 (-▴-), anti-VEGF antibody bevacizumab (-∘-), or anti-VEGF/anti-DLL4 bispecific antibody 219R45-MB-21M18 (-▾-). Data is shown as tumor volume (photons/sec) over days post-treatment. Antibodies were administered intraperitoneally at a dose of 25 mg/kg once a week.
A human skin graft model has been reported which comprises a human skin graft and human tumor cells. A human skin graft is established and then human tumor cells are implanted into the skin graft, allowing the tumor cells to grow in an environment with human stroma and vasculature (Tahtis et al., 2003, Mol. Cancer Ther. 2:[…]). Human skin samples were obtained from neonatal foreskin tissue and grafted onto the lateral flank of NOD-SCID mice. After establishment of the skin graft, luciferase-labeled OMP-C8 colon tumor cells (20,000 cells) were injected intradermally into the human skin. Tumor growth was monitored by bioluminescence imaging using an IVIS imaging system (Caliper Life Sciences, Mountain View, Calif.). Tumors were allowed to grow until they reached 1.2×10^6 photons per second. Tumor-bearing mice (n=6 mice/group) were randomized and treated with control Ab, anti-hDLL4 antibody 21M18, anti-VEGF antibody bevacizumab, or anti-VEGF/anti-DLL4 bispecific antibody 219R45-MB-21M18. Animals were treated once a week and antibodies were administered intraperitoneally at a dose of 25 mg/kg. Tumor growth was monitored by bioluminescence imaging on the indicated days.

OMP-C8 colon tumor [3] = assay: OMP-C8 colon tumor growth in vivo; parameters: species or system NOD/SCID mice
Description: FIGS. 11A and 11B. Inhibition of colon tumor growth in vivo by anti-VEGF/anti-DLL4 bispecific antibodies. OMP-C8 colon tumor cells were injected subcutaneously into NOD/SCID mice. Mice were treated with control antibody (-▪-), anti-VEGF antibody bevacizumab (-▴-), or anti-VEGF/anti-DLL4 bispecific antibodies 219R45-MB-21M18 (-⋄-), 219R45-MB-21R75 (-●-), 219R45-MB-21R79 (-∘-), or 219R45-MB-21R83 (-▾-). Mice were treated with antibodies as single agents (FIG. 11A) or in combination with irinotecan (FIG. 11B). Antibodies were administered intraperitoneally at a dose of 15 mg/kg once a week and irinotecan at a dose of 7.5 mg/kg one a week. Data are shown as tumor volume (mm^3) over days post-treatment.
Single cell suspensions of OMP-C8 colon tumor xenografts (50,000 cells) were injected subcutaneously into the flanks of 6-8 week old NOD/SCID mice. Tumors were allowed to grow for 21 days until they reached an average volume of 80 mm^3. The mice were randomized (n=8 per group) and treated with anti-DLL4 antibody 21M18, anti-VEGF antibody bevacizumab, anti-VEGF/anti-DLL4 bispecific antibodies 219R45-MB-21M18, 219R45-MB-21R75, 219R45-MB-21R79, 219R45-MB-21R83, or control antibody, either alone or in combination with irinotecan. Antibodies and irinotecan were dosed weekly by injection into the intraperitoneal cavity. Bevacizumab and bispecific antibodies 219R45-MB-21M18, 219R45-MB-21R75, 219R45-MB-21R79, and 219R45-MB-21R83 were dosed at 15 mg/kg, and irinotecan was dosed at 7.5 mg/kg. Tumor growth was monitored and tumor volumes were measured with electronic calipers at the indicated time points. Data are expressed as mean±S.E.M.
Following the treatment phase, tumor sections were prepared and analyzed by hematoxylin and eosin (H&E) staining. […] This is characteristic of highly necrotic tumor tissue.

| Molecule | tumor growth frequency (mice with tumors) [1] | tumor growth frequency, single agents (OMP-C8 colon tumor [2]) | inhibition of tumor growth (bioluminescence) (OMP-C8 colon tumor cells) | inhibition of tumor growth in combination with irinotecan (OMP-C8 colon tumor [3]; antibody 15 mg/kg, irinotecan 7.5 mg/kg weekly ip) | H&E staining of tumor sections after treatment (OMP-C8 colon tumor [3]; in combination with irinotecan) |
| --- | --- | --- | --- | --- | --- |
| Nc1ccn([C@@H]2O[C@H](CO)[C@@H](O)C2(F)F)c(=O)n1 [gemcitabine, reference compound] | 10 out of 10 | – | – | – | – |
| CCc1c2c(nc3ccc(OC(=O)N4CCC(N5CCCCC5)CC4)cc13)-c1cc3c(c(=O)n1C2)COC(=O)[C@]3(O)CC [irinotecan, reference compound] | – | reduced tumor growth frequency | – | – | – |
| bevacizumab [reference compound] | 10 out of 10 | had no effect on tumor growth frequency | inhibited tumor growth | – | – |
| 219R45-MB-21R83: anti-VEGF/anti-DLL4 monovalent/bispecific antibody, heavy chains SEQ ID NO:7 and 62, light chains SEQ ID NO:8 (antibody, 21R79 Heavy chain without predicted signal sequence; 21R83 Heavy chain without signal sequence; Light chain without predicted signal sequence) heavy 1: QVQLVQSGAEVKKPGASVKVSCKASGYTFTNYWMHWVRQAPGQGLEWMGDINPSNGRTSYKEKFKRRVTLSVDKSSSTAYMELSSLRSEDTAVYFCTIHYDDKYYPLMDYWGQGTLVTVSSASTKGPSVFPLAPCSRSTSESTAALGCLVKDYFPEPVTVSWNSGALTSGVHTFPAVLQSSGLYSLSSVVTVPSSNFGTQTYTCNVDHKPSNTKVDKTVERKCCVECPPCPAPPVAGPSVFLFPPKPKDTLMISRTPEVTCVVVDVSHEDPEVQFNWYVDGVEVHNAKTKPREEQFNSTFRVVSVLTVVHQDWLNGKEYKCKVSNKGLPAPIEKTISKTKGQPREPQVYTLPPSREKMTKNQVSLTCLVKGFYPSDIAVEWESNGQPENNYKTTPPMLKSDGSFFLYSKLTVDKSRWQQGNVFSCSVMHEALHNHYTQKSLSLSPGK heavy 2: QVQLVQSGAEVKKPGASVKISCKASGYSFTAYYIHWVKQAPGQGLEWIGYISNYNRATNYNQKFKGRVTFTTDTSTSTAYMELRSLRSDDTAVYYCARDYDYDVGMDYWGQGTLVTVSSASTKGPSVFPLAPCSRSTSESTAALGCLVKDYFPEPVTVSWNSGALTSGVHTFPAVLQSSGLYSLSSVVTVPSSNFGTQTYTCNVDHKPSNTKVDKTVERKCCVECPPCPAPPVAGPSVFLFPPKPKDTLMISRTPEVTCVVVDVSHEDPEVQFNWYVDGVEVHNAKTKPREEQFNSTFRVVSVLTVVHQDWLNGKEYKCKVSNKGLPAPIEKTISKTKGQPREPQVYTLPPSREEMTKNQVSLTCLVEGFYPSDIAVEWESNGQPENNYKTTPPMLDSDGSFFLYSELTVDKSRWQQGNVFSCSVMHEALHNHYTQKSLSLSPGK light: DIVMTQSPDSLAVSLGERATISCRASESVDNYGISFMKWFQQKPGQPPKLLIYAASNQGSGVPDRFSGSGSGTDFTLTISSLQAEDVAVYYCQQSKEVPWTFGGGTKVEIKRTVAAPSVIFPPSDEQLKSGTASVVCLLNNFYPREAKVQWKVDNALQSGNSQESVTEQDSKDSTYSLSSTLTLSKADYEKHKVYACEVTHQGLSSPVTKSFNRGEC | – | – | – | greatest inhibition of tumor growth | dark pink staining regions providing evidence of extensive calcification |
